# According to patent publication US20050250742A1 (Pfizer Inc., priority 2004, published 2005):
# Tests used:
# [1] = target: T1, PIN1-CD (catalytic peptidyl-prolyl isomerase domain, devoid of the PIN1 WW domain) (Homo sapiens, UniProt Q13526); assay: Pin1 peptidyl-prolyl isomerase assay (protease-coupled, spectrophotometric); type: biochemical; conditions: catalytic PPIase domain without WW domain; 15° C., pH 7.5, 100 μM Suc-AEPF-pNA
# T1 construct: PIN1 peptide containing the catalytic peptidyl-prolyl isomerase domain but devoid of the PIN1 WW domain
# Description: PIN1 is a phosphorylation dependent peptidyl-prolyl isomerase. The PIN1 assay is a spectrophotometric assay based on the coupled chymotrypsin or subtilisin catalyzed, cis-trans conformation dependent cleavage of a para-nitroanaline containing peptide substrate. […] Cleavage of the isomerized peptide releases para-nitroanaline, which can be monitored by an increase in absorbance at 390 nm. The PIN1 peptide substrate, succinyl-[…]-proline-phenylalanine-paranitroaniline (Suc-AEPF-pNA) (Bachem), is kept in a predominantly cis conformation with an anhydrous TFE/LiCl solvent mixture.
# Upon dilution into an aqueous assay mixture containing PIN1, the peptide substrate undergoes PIN1 catalyzed isomerization to the trans conformation. […] To minimize the spontaneous isomerization of the peptide substrate, reactions are performed at 15° C. A typical reaction contains 25 mM MOPS pH 7.5, 0.5 mM TCEP, 2% DMSO, 5 μl of a 25 mg/ml solution of subtilisin Carlsberg, 50 nM PIN1-PPiase, and 100 μM Suc-AEPF-pNA peptide substrate. Reactions are cooled to 15° C. and initiated with the addition of Suc-AEPF-pNA. The absorbance at 390 nm is monitored continuously until all substrate has been converted to the cleaved product. […] The rate constant k is linearly proportional to the concentration of active enzyme present in the assay mixture once the rate constant for the spontaneous isomerization is subtracted. […] Therefore, during inhibition experiments, the IC50, for non-tight binding inhibitors, is essentially the inhibition constant Ki.
# (§1) In Table 1, the Ki data reported under the PIN1—CD heading corresponds to testing with PIN1 peptide containing the catalytic peptidyl-prolyl isomerase domain but devoid of the PIN1 WW domain. Similarly, the dissociation constant (Kd) data under PIN1-CD refers to testing with a peptide containing the catalytic PIN1 domain but devoid of the PIN1 WW domain.
# [2] = target: T2, PIN1-CD (catalytic PIN1 domain, devoid of the PIN1 WW domain) (Homo sapiens, UniProt Q13526); assay: Dissociation constant (Kd) with PIN1 catalytic domain; type: binding; conditions: peptide containing the catalytic PIN1 domain
# T2 construct: PIN1 peptide containing the catalytic peptidyl-prolyl isomerase domain but devoid of the PIN1 WW domain
# Description: as §1
# T2 sequence (Q13526 52-163 limits assumed): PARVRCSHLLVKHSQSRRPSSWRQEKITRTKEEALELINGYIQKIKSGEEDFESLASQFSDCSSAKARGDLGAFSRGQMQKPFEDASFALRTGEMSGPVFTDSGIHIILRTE
# T1 sequence (Q13526 52-163 limits assumed): as above
Ki [1] [nM],Kd [2] [nM],Compound
< 10000,,"CN(C)c1cccc2c(S(=O)(=O)N[C@@H](COP(=O)(O)O)Cc3cccc(F)c3)cccc12 [Example 42, Phosphoric acid mono-[(R)-2-(5-dimethylamino-naphthalene-1-sulfonylamino)-3-(3-fluoro-phenyl)-propyl]ester]"
,< 1000,"COc1cc(C)cc(NC(=O)N[C@@H](COP(=O)(O)O)Cc2ccccc2)c1 [Example 23c, Phosphoric acid mono-{2-[3-(3-methoxy-5-methyl-phenyl)-ureido]-3-phenyl-propyl}ester]"
,< 1000,O=C(N[C@@H](COP(=O)(O)O)Cc1ccccc1)c1ccc2ccccc2c1O [Example 25-21]
< 1000,,"O=C(N[C@@H](COP(=O)(O)O)Cc1ccccc1)c1cccc(Cl)c1 [Example 25-8, Phosphoric acid mono-(2-{[1-(3-chloro-phenyl)-methanoyl]-amino}-3-phenyl-propyl) ester]"
< 1000,,"O=C(N[C@@H](COP(=O)(O)O)Cc1cccc(F)c1)c1ccc2nc[nH]c2c1 [Example 61, Phosphoric acid mono-[(R)-2-[(1-3H-benzoimidazol-5-yl-methanoyl)-amino]-3-(3-fluoro-phenyl)-propyl]ester]"
< 1000,,"CC(C)(C)C(=O)N[C@@H](COP(=O)(O)O)Cc1ccccc1 [Example 25-16, Phosphoric acid mono-[(R)-2-(2,2-dimethyl-propanoylamino)-3-phenyl-propyl]ester]"
,< 100000,"NS(=O)(=O)OC[C@@H](Cc1ccccc1)NC(=O)c1ccc2ccccc2c1 [Example 72, Sulfamic acid 2-[(1-naphthalen-2-yl-methanoyl)-amino]-3-phenyl-propyl ester]"
,< 1000,"O=C(N[C@@H](COP(=O)(O)O)Cc1ccccc1)c1ccc2cc(O)ccc2c1 [Example 25-20, Phosphoric acid mono-(2-{[1-(6-hydroxy-naphthalen-2-yl)-methanoyl]-amino}-3-phenyl-propyl)ester]"
,< 1000,"O=C(N[C@@H](COP(=O)(O)O)Cc1ccccc1)c1ccc(Cl)c(Cl)c1 [Example 25-5, Phosphoric acid mono-(2-{[1-(3,4-dichloro-phenyl)-methanoyl]amino}-3-phenyl-propyl)ester]"
< 1000,,"CCN(CC)c1ccc2cc(C(=O)N[C@@H](COP(=O)(O)O)Cc3cccc(F)c3)c(=O)oc2c1 [Example 25-33, Phosphoric acid mono-[(R)-2-{[1-(diethylamino-oxo-2H-chromen-3-yl)-methanoyl]-amino}-3-(3-fluoro-phenyl)-propyl]ester]"
,< 10000,"O=C(N[C@@H](COP(=O)(O)O)Cc1ccccc1)c1ccccc1O [Example 25-13, Phosphoric acid mono-(2-{[1-(2-hydroxy-phenyl)-methanoyl]-amino}-3-phenyl-propyl)ester]"
< 1000,,"O=C(N[C@@H](CCP(=O)(O)O)Cc1cccc(F)c1)c1cc2ccccc2s1 [Example 71, ([(R)-3-[(Benzo[b]thiophene-2-carbonyl)-amino]4-(3-fluoro-phenyl)-butyl]-phosphonic acid)]"
< 10000,,"CC(=O)N[C@@H](COP(=O)(O)O)Cc1ccccc1 [Example 25-40, Phosphoric acid mono-(2-acetylamino-3-phenyl-propyl)ester]"
,< 1000,"O=C(Nc1ccccc1Oc1ccccc1)N[C@@H](COP(=O)(O)O)Cc1ccccc1 [Example 23b, Phosphoric acid mono-{2-[3-(2-phenoxy-phenyl)-ureido]-3-phenyl-propyl}ester]"
,< 1000,O=C(N[C@@H](COP(=O)(O)O)Cc1ccccc1)c1sccc1Cl [Example 25-12]
,< 1000,"O=C(N[C@@H](COP(=O)(O)O)Cc1ccccc1)c1ccc2ccccc2c1Br [Example 25-24, Phosphoric acid mono-(2-{[1-(1-bromo-naphthalen-2-yl)-methanoyl]amino}-3-phenyl-propyl)ester]"

Ki [1] [nM],Kd [2] [nM],Compound
,< 1000,"COc1c(C(=O)N[C@@H](COP(=O)(O)O)Cc2ccccc2)csc1Cl [Example 25-6, Phosphoric acid mono-(2{[1-(5-chloro-4-methoxy-thiophen-3-yl)-methanoyl]-amino}-3-phenyl-propyl)ester]"
< 10000,,"O=C(N[C@@H](COP(=O)(O)O)CC1CCCCC1)c1ccc2ccccc2c1 [Example 33, Phosphoric acid mono-{(R)-3-cyclohexyl-2-[(1-naphthalen-2-yl-methanoyl)-amino]-propyl}ester]"
,< 1000,"COc1cc(NC(=O)N[C@@H](COP(=O)(O)O)Cc2ccccc2)cc(OC)c1 [Example 23d, Phosphoric acid mono-{2-[3-(3,5dimethoxy-phenyl)-ureido]-3-phenyl-propyl}ester]"
,< 1000,"COc1ccc2cc(C(=O)N[C@@H](COP(=O)(O)O)Cc3ccccc3)ccc2c1 [Example 25-25, Phosphoric acid mono-(2-{[1-(6-methoxy-naphthalen-2-yl)-methanoyl]-amino}-3-phenyl-propyl)ester]"
,< 1000,"O=C(N[C@@H](COP(=O)(O)O)Cc1ccccc1)c1cccc2ccccc12 [Example 25-10, Phosphoric acid mono-{2-[(1-naphthalen-1-yl-methanoyl)-amino]-3-phenyl-propyl}ester]"
,< 1000,"O=C(N[C@@H](COP(=O)(O)O)Cc1ccccc1)c1cc2ccccc2cc1O [Example 25-22, Phosphoric acid mono-(2-{[1-(3-hydroxy-naphthalen-2-yl)-methanoyl]-amino}-3-phenyl-propyl)ester]"
< 1000,,"O=C(OC(CCCc1ccccc1)CCCc1ccccc1)[C@@H]1CCCCN1C(=O)N[C@@H](COP(=O)(O)O)Cc1cccc(F)c1 [Example 79, (S)-1-[(R)-2-(3-Fluoro-phenyl)-1-phosphonooxymethyl-ethylcarbamoy]-piperidine-2-carboxylic acid 4-phenyl-1-(3-phenyl-propyl)-butyl ester]"
,< 1000,"Cc1nn(-c2ccccc2)nc1C(=O)N[C@@H](COP(=O)(O)O)Cc1ccccc1 [Example 25-7, Phosphoric acid mono-(2-{[1-(5-methyl-2-phenyl-2H-[1,2,3]triazol-4-yl)-methanoyl]-amino}-3-phenyl-propyl)ester]"
,< 10000,"CN(C(=O)c1ccc2ccccc2c1)C(COP(=O)(O)O)Cc1ccccc1 (stereo not shown) [Example 58, Phosphoric acid mono-{[methyl-(1-naphthalen-2-yl-methanoyl)-amino]-phenyl-propyl}ester]"
,< 1000,"O=C(N[C@@H](COP(=O)(O)O)Cc1ccccc1)c1cnc2ccccc2n1 [Example 25-11, Phosphoric acid mono-{3-phenyl-2-[(1-quinoxalin-2-yl-methanoyl)-amino]-propyl}ester]"
< 10000,,CC(C)C(=O)N[C@@H](COP(=O)(O)O)Cc1ccccc1 [Example 25-15]
,< 1000,"O=C(N[C@@H](COP(=O)(O)O)Cc1ccccc1)c1cc2ccccc2[nH]1 [Example 25-18, Phosphoric acid mono-{2-[(1-1H-indol-2-yl-methanoyl)-amino]-3-phenyl-propyl}ester]"
,< 1000,"O=C(N[C@@H](COP(=O)(O)O)Cc1ccccc1)c1cc2ccccc2o1 [Example 25-19, Phosphoric acid mono-{2-[(1-benzofuran-2-yl-methanoyl)-amino]-3-phenyl-propyl}ester]"
,< 1000,"O=C(N[C@@H](COP(=O)(O)O)Cc1ccccc1)c1ccc(Oc2cc(Cl)cc(Cl)c2)o1 [Example 25-4, Phosphoric acid mono-[2-({1-[5-(3,5-dichloro-phenoxy)-furan-2-yl]-methanoyl}-amino)-3-phenyl-propyl]ester]"
,< 10000,"O=C(N[C@@H](COP(=O)(O)O)Cc1ccccc1)c1ccco1 [Example 25-14, Phosphoric acid mono-{2-[(1-furan-2-yl-methanoyl)-amino]-3-phenyl-propyl}ester]"
,< 1000,"O=C(N[C@@H](COP(=O)(O)O)Cc1ccccc1)c1cc2ccccc2[s+]1[O-] (stereo in doubt) [25-2′, Phosphoric acid mono-(2-{[1-(1-oxo-benzo[b]thiophen-2-yl)-methanoyl]-amino}-3-phenyl-propyl)ester]"

Compound,Ki [1] [nM],Kd [2] [nM]
"CN(C)c1cccc2c(S(=O)(=O)N[C@@H](COP(=O)(Oc3ccccc3)Oc3ccccc3)Cc3cccc(F)c3)cccc12 [Example 86, Phosphoric acid (R)-2-(5-dimethylamino-naphthalene-1-sulfonylamino)-3-(3-fluoro-phenyl)-propyl ester diphenyl ester]",< 100000,
"CC(=O)OCOP(=O)(OCOC(C)=O)OC[C@@H](Cc1cccc(F)c1)NC(=O)c1cc2ccccc2s1 [Example 85, Acetic acid acetoxymethoxy-[(R)-2-[(1-benzo[b]thiophen-2-yl-methanoyl)-amino]-3-(3-fluoro-phenyl)-propoxy]-phosphoryloxymethyl ester]",< 100000,
